ChEMBL document CHEMBL5352399, “(1R,3S)-THCCA-Asn: To show the discovery of selective inhibitor of thrombin by successfully combining virtual screening and biological assay” (Eur J Med Chem, 2022)
Active and inactive are the calls of the source. The calls are words filed in the database; no cut-off is given here.

Key:
Rattus norvegicus [1] = assay: Antithrombotic activity in Wistar rat model assessed as thrombus weight at 1 nmol/kg, po by polyethylene tube based method; type: functional
Platelet [2] = assay: Anti-platelet aggregation activity in Sprague-Dawley rat platelet rich plasma assessed as inhibition of AA-induced aggregation preincubated with compound followed by AA addition measured after 5 mins by two channel chronology aggregometry; type: functional, cell-based
Platelet [3] = assay: Anti-platelet aggregation activity in Sprague-Dawley rat platelet rich plasma assessed as inhibition of PAF-induced aggregation preincubated with compound followed by PAF addition measured after 5 mins by two channel chronology aggregometry; type: functional, cell-based
Platelet [4] = assay: Anti-platelet aggregation activity in Sprague-Dawley rat platelet rich plasma assessed as inhibition of ADP-induced aggregation preincubated with compound followed by ADP addition measured after 5 mins by two channel chronology aggregometry; type: functional, cell-based
[5] = Anti-platelet aggregation activity in Sprague-Dawley rat platelet rich plasma assessed as inhibition of TH-induced aggregation preincubated with compound followed by TH addition measured after 5 mins by two channel chronology aggregometry; type: functional, cell-based
[6] = Cytotoxicity activity against human L02 cells assessed as cell growth inhibition incubated for 48 hrs by CCK-8 assay; type: toxicity, cell-based
[7] = Cytotoxicity activity against human NCM460 cells assessed as cell growth inhibition incubated for 48 hrs by CCK-8 assay; type: toxicity, cell-based
[8] = Cytotoxicity activity against human NHDF cells assessed as cell growth inhibition incubated for 48 hrs by CCK-8 assay; type: toxicity, cell-based
[9] = Toxicity in rat thrombosis model assessed as change in tail bleeding time at 1 nmol/kg, po by tail bleeding time assay; type: organism-based; conditions: in vivo
[10] = Toxicity in rat thrombosis model assessed as change in tail bleeding time at 0.01 nmol/kg, po by tail bleeding time assay; type: organism-based; conditions: in vivo
[11] = Toxicity in rat thrombosis model assessed as change in tail bleeding time at 0.001 nmol/kg, po by tail bleeding time assay; type: organism-based; conditions: in vivo
[12] = Toxicity in rat thrombosis model assessed as bleeding in brain at 0.001 to 1 nmol/kg, po; type: tissue-based; conditions: in vivo, dose 0.001-1 nmol/kg
[13] = Toxicity in rat thrombosis model assessed as bleeding in thoracic cavity at 0.001 to 1 nmol/kg, po; conditions: in vivo, dose 0.001-1 nmol/kg
[14] = Toxicity in rat thrombosis model assessed as bleeding in inferior cavity at 0.001 to 1 nmol/kg, po; conditions: in vivo, dose 0.001-1 nmol/kg
Rattus norvegicus [15] = assay: Anti-arterial thrombosis activity in po dosed male Wister rat thrombogenesis model assessed as thrombus weight by polyethylene tube based method; type: functional, organism-based; conditions: dose 0.001-1 nmol/kg
Rattus norvegicus [16] = assay: Antithrombotic activity in Wistar rat model assessed as thrombus weight at 10 nmol/kg, po by polyethylene tube based method; type: functional

Row | IC50 [5] [nM] | SMILES | Activity (Rattus norvegicus [1]) [mg] | inhibition (Platelet [2]) | inhibition (Platelet [3]) | inhibition (Platelet [4]) | further results
1 | 70 | COC(=O)c1cc([C@H]2N[C@H](C(=O)N[C@@H](CCCCN)C(=O)O)Cc3c2[nH]c2ccccc32)ccc1O | 19.19 | inactive | inactive | inactive | –
2 | 230 | COC(=O)c1cc([C@H]2N[C@H](C(=O)N[C@@H](CCC(N)=O)C(=O)O)Cc3c2[nH]c2ccccc32)ccc1O | 21.66 | inactive | inactive | inactive | –
3 | 1750 | COC(=O)c1cc([C@H]2N[C@H](C(=O)N[C@H](C(=O)O)[C@@H](C)O)Cc3c2[nH]c2ccccc32)ccc1O | 23.69 | inactive | inactive | inactive | –
4 | 230 | CC[C@H](C)[C@H](NC(=O)[C@@H]1Cc2c([nH]c3ccccc23)[C@@H](c2ccc(O)c(C(=O)OC)c2)N1)C(=O)O | 21.66 | inactive | inactive | inactive | –
5 | 1750 | COC(=O)c1cc([C@H]2N[C@H](C(=O)NCC(=O)O)Cc3c2[nH]c2ccccc32)ccc1O | 23.69 | inactive | inactive | inactive | –
6 | 70 | COC(=O)c1cc([C@H]2N[C@H](C(=O)N[C@@H](Cc3ccc(O)cc3)C(=O)O)Cc3c2[nH]c2ccccc32)ccc1O | 19.19 | inactive | inactive | inactive | –
7 | 230 | COC(=O)c1cc([C@H]2N[C@H](C(=O)N[C@@H](CCCNC(=N)N)C(=O)O)Cc3c2[nH]c2ccccc32)ccc1O | 21.66 | inactive | inactive | inactive | –
8 | 1750 | COC(=O)c1cc([C@H]2N[C@H](C(=O)N[C@@H](CCC(=O)O)C(=O)O)Cc3c2[nH]c2ccccc32)ccc1O | 23.69 | inactive | inactive | inactive | –
9 | 70 | COC(=O)c1cc([C@H]2N[C@H](C(=O)N[C@@H](CO)C(=O)O)Cc3c2[nH]c2ccccc32)ccc1O | 19.19 | inactive | inactive | inactive | –
10 | 230 | COC(=O)c1cc([C@H]2N[C@H](C(=O)N[C@H](C(=O)O)C(C)C)Cc3c2[nH]c2ccccc32)ccc1O | 23.69 | inactive | inactive | inactive | –
11 | 70 | COC(=O)c1cc([C@H]2N[C@H](C(=O)N[C@@H](CC(N)=O)C(=O)O)Cc3c2[nH]c2ccccc32)ccc1O | 19.19 | inactive | inactive | inactive | IC50 at 48 h [6]: > 125 µM; IC50 at 48 h [7]: > 125 µM; IC50 at 48 h [8]: > 125 µM; Activity [9]: Non-Toxic; Activity [10]: Non-Toxic; Activity [11]: Non-Toxic; Activity [12]: Non-Toxic; Activity [13]: Non-Toxic; Activity [14]: Non-Toxic; Activity (Rattus norvegicus [15]): Dose-Dependent Effect
12 | – | COC(=O)c1cc([C@H]2N[C@H](C(=O)O)Cc3c2[nH]c2ccccc32)ccc1O | – | – | – | – | Activity (Rattus norvegicus [16]): 23.17 mg
13 | 230 | COC(=O)c1cc([C@H]2N[C@H](C(=O)N[C@@H](C)C(=O)O)Cc3c2[nH]c2ccccc32)ccc1O | 21.66 | inactive | inactive | inactive | –
14 | 230 | COC(=O)c1cc([C@H]2N[C@H](C(=O)N[C@@H](Cc3c[nH]c4ccccc34)C(=O)O)Cc3c2[nH]c2ccccc32)ccc1O | 21.66 | inactive | inactive | inactive | –
15 | 1750 | COC(=O)c1cc([C@H]2N[C@H](C(=O)N[C@@H](CC(C)C)C(=O)O)Cc3c2[nH]c2ccccc32)ccc1O | 23.69 | inactive | inactive | inactive | –
16 | 1750 | COC(=O)c1cc([C@H]2N[C@H](C(=O)N[C@@H](CC(=O)O)C(=O)O)Cc3c2[nH]c2ccccc32)ccc1O | 23.69 | inactive | inactive | inactive | –
17 | 1750 | COC(=O)c1cc([C@H]2N[C@H](C(=O)N[C@@H](Cc3ccccc3)C(=O)O)Cc3c2[nH]c2ccccc32)ccc1O | 23.69 | inactive | inactive | inactive | –
